Experimental data reported in patent US10201558B2, “Compositions of selenoorganic compounds and methods of use thereof” (Alltech, Inc., priority 2014, dated 2019).
“Also recorded” adds a separate entry of the source.

Assays:
Neprilysin = assay: Western blot of Neprilysin in APP/PS1 mouse brains; type: in vivo; conditions: APP/PS1 mice, Compound C diet vs control diet
Procedure: (§1) Male APPΔNLh/ΔNLh×PS1P246 L/246 L knock-in model mice of Alzheimer's disease (abbreviated APP/PS1) were genotyped using standard primers for human APP (Amyloid Precursor Protein) and human PS1 (PSEN1). These APP/PS1 mice starting at the age of 6 months, were fed either a control diet containing normal levels of selenium (0.3 ppm from plant and inorganic selenium salt sources) or an experimental diet containing Compound C (the control diet to which was added 1 ppm Se from Compound C) for 6 months. […]
(§2) Frozen hemispheres of control- and Compound C-treated APP/PS1 mice were weighed and homogenized in PBS buffer, and then subsequently extracted with RIPA buffer (Sigma) containing complete proteinase and phosphatase inhibitors (Fisher Scientific). Protein levels in the samples were determined by micro-BCA protein analysis according to the manufacturer's protocol. […] Positive signals on the membrane blots were detected using Amersham's enhanced chemiluminescence Western Blotting Prime Detection reagents (GE healthcare Lifescience, Pittsburgh, Pa.). Images of these luminescence signals on the membrane blots were captured using the LI-COR Odyssey Fc Image system (Lincoln, Nebr.). Protein band densities in Western blots were determined using NIH Image J software, and then normalized by Actb levels in each samples to obtain the protein levels.

Iba-1 = assay: Western blot of Iba-1 in APP/PS1 mouse brains; type: in vivo; conditions: APP/PS1 mice, Compound C diet vs control diet
Procedure: as §1, §2

MAPK13 = assay: QRT-PCR of MAPK13 mRNA in control and FOXO4 KD IMR-32 cells; type: cell-based, human; conditions: 24 hours
Procedure: IMR-32 cells were cultured on 12-well plates for 24 hours and then incubated with FOXO4 siRNA lentiviruses (SC-29650V, Santa Cruz) or control siRNA lentiviruses (sc-108080, Santa Cruz) in the presence of Polybrene (5 μg/ml, Santa Cruz) for 24 hours according to the manufacturer's protocol. These lentiviral siRNA-transfected cells were amplified in normal media for 3 days and then incubated with puromycin for 9-14 days to obtain the stable Control KD (stably transfected with the control siRNAs) and FOXO4KD (stably transfected with Foxo4 siRNAs) cells. These control and Foxo4 KD cells were subjected to cell survival, mitochondrial potential and RNA analysis.
Human IMR-32 cells were seeded on gelatinized 6-well (6.5×10^5 cells/well) or 24-well (1.3×10^5 cells/well) plates. Cells were treated with control (0 ppb) or various compounds for 6 hours or 24 hours. Total RNA from these cells was isolated using Trizol (Invitrogen) according to the manufacturer's protocol, and then incubated with DNase I to remove any potential contaminated genomic DNA. Then RNA samples were subjected to real-time PCR analysis using the Applied-Bioscience's RT kit and predesigned Taqman probes (Invitrogen), as described previously (Lan et al EMBO J 2003). The mRNA levels of UCP1, UCP2, UCP3, SLC25A27 (UCP4), SLC25A14 (UCP5), PSEN1, Nicastrin, GSK3B, MAPK11-14, PPARG, APOE, RCAN1, RCAN1.1, G6PC, INSR, IGF1R and FOXO4 were measured. Three to six samples were analyzed in each treatment group. Data were normalized by Actin B (ACTB) or Glyceraldehyde Phosphate Dehydrogenase (GAPDH) mRNA levels in each sample and are presented as mean±SEM of 3-6 samples.
Normal control cells and FOXO4KD cells were incubated with two doses of Compound C for 24 hours, and subjected to QRT-PCR analysis of the MAPK11-14 genes. The relative mRNA expression of all four MAPK genes in normal control IMR-32 cells was assessed. […] Data in Compound C-treated control and FOXO4 KD cells were normalized by their levels in control and FOXO4KD cells, respectively. Mean±SEM of indicated number of samples in the bar graphs. […]

C[Se]C[C@H]1O[C@@H](n2cnc3c(N)ncnc32)C(O)C1O (stereo in doubt) [Compound C, 5′-deoxy-5′-methylselenoadenosine]
Neprilysin protein levels in the brains (Neprilysin): increased; also recorded: elevated
Iba-1 protein levels in the brains (Iba-1): reduced; also recorded: decreased
MAPK13 mRNA levels (MAPK13; FOXO4KD cells, 75 ppb and 150 ppb): none of the mRNA levels of the four MAPK genes in FOXO4KD cells were significantly altered
MAPK13 mRNA levels (MAPK13; control KD cells, 75 ppb): trend towards decreased
MAPK13 mRNA levels (MAPK13; control KD cells, 150 ppb): significantly decreased
